# Results: patent publication US12473258B2, “Crystal form of pyridinylphenyl compound and preparation method therefor” (ZHUHAI UNITED LABORATORIES CO., LTD., priority 2020, dated 2025)
# Legend:
# [1] = system: dry eye model of rat induced by hypertonic sodium chloride solution; assay: Hyperosmolar dry eye model of rats induced by hypertonic sodium chloride solution, eye drop administration; assay type: in vivo, SD rats
# Method: 20 female SD rats qualified for the adaptability observation were subjected to the scoring of fluorescent staining of the cornea and measurement of tear secretion amount of both eyes for the animals, and animals with abnormalities of problematic fluorescent staining of the cornea and significant differences in tear secretion amount were excluded.
# A pipette was used to draw 20 μL of sodium chloride solution (osmotic pressure of 500 mOsmol/L), which was dropped into the conjunctival sac of both eyes of the animal, 5 times/day, 20 μL/time, with an interval of about 2 hours between each time, for 28 consecutive days. After dropping the solution, the animal's eyelids were passively closed for about 90 s. On the 14th day of the modeling period, the animals were subjected to scoring of fluorescent staining of the cornea of both eyes and measurement of tear secretion amount, and the data were compared with the basic data, and the animals with significant differences in tear secretion amount of both eyes were selected for grouping.
# , the tear secretion amount of both eyes was measured, and the scoring of fluorescent staining of the cornea […]
# [2] = system: dry eye model of mice induced by scopolamine hydrobromide solution; assay: Dry eye model of mice induced by subcutaneous scopolamine hydrobromide solution, eye drop administration; assay type: in vivo, C57BL/6 mice
# Method: The grouping day was recorded as DO. After divided into groups, Animals in each group were subjected to modeling, eye drop administration, scoring of corneal fluorescent staining, tear secretion measurement, etc., according to the experimental settings.
# [3] = Pre-stability experiment of the crystal form (influencing factors and accelerated conditions, crystal form by XRPD); assay type: physicochemical
# Method: X-Ray Powder Diffractometer (XRPD) Method in the Present Disclosure
# Instrument model: Bruker D8 Advance X-ray diffractometer
# Test method: About 10 mg of sample is used for XRPD test.
# The detailed XRPD parameters are as follows:
# The samples were fully exposed. Samples under the test condition of 40° C., 25° C./92.5% RH, light, light control were taken at 5 days and 10 days for analysis, and samples under the accelerated condition were taken at 1 month, 2 months and 3 months for analysis.
# [4] = 25° C. competition experiment of water activity (suspension and beating, XRPD); assay type: physicochemical; conditions: competition of crystal form B and crystal form C
# Method: If the solution was clear, the compound was continued to add until the solution was saturated. […] After addition of a magnetic stir bar, the above suspension sample was placed on a constant temperature mixer (25° C., 700 rpm) for shaking.
# And the products obtained with water activity of 0.9 and 1.0 were characterized after drying, and the two were almost the same.
# [5] = Tolerability of eye drops after administration in animals; assay type: in vivo; conditions: eye drops with the highest concentration
# [6] = rats, 1 mg/mL eye drops (G2), D0
# [7] = rats, 1 mg/mL eye drops (G2), D14
# [8] = rats, 1 mg/mL eye drops (G2), D21
# [9] = rats, 5 mg/mL eye drops (G3), D0
# [10] = rats, 5 mg/mL eye drops (G3), D14
# [11] = rats, 5 mg/mL eye drops (G3), D21
# [12] = mice, 1 mg/mL eye drops (G3), D0 (grouping day)
# [13] = mice, 1 mg/mL eye drops (G3), D7
# [14] = mice, 1 mg/mL eye drops (G3), D12
# [15] = mice, 2.5 mg/mL eye drops (G4), D0 (grouping day)
# [16] = mice, 2.5 mg/mL eye drops (G4), D7
# [17] = mice, 2.5 mg/mL eye drops (G4), D12
# [18] = mice, 5 mg/mL eye drops (G5), D0 (grouping day)
# [19] = mice, 5 mg/mL eye drops (G5), D7
# [20] = mice, 5 mg/mL eye drops (G5), D12
smiles,measurement,setting,value
CC(C)(O)c1ccc(-c2cnc(C(C)(C)O)c(N)c2)cc1N,"Therapeutic effect on the dry eye model of rat (tear secretion amount, corneal damage, tear film breakup time)","[1]; eye drops 1 mg/mL, 5 mg/mL",good therapeutic effect
same,Scoring of fluorescent staining of the cornea,[1]; [6],0.00 ± 0.00
same,Tear secretion amount: wetted length of phenol red cotton thread,[1]; [6],13.78 ± 5.25 mm
same,Scoring of fluorescent staining of the cornea,[1]; [7],4.75 ± 3.73
same,Tear secretion amount: wetted length of phenol red cotton thread,[1]; [7],8.12 ± 2.81 mm
same,Scoring of fluorescent staining of the cornea,[1]; [8],3.00 ± 2.78
same,Tear secretion amount: wetted length of phenol red cotton thread,[1]; [8],9.24 ± 4.07 mm
same,Scoring of fluorescent staining of the cornea,[1]; [9],0.13 ± 0.35
same,Tear secretion amount: wetted length of phenol red cotton thread,[1]; [9],13.87 ± 4.45 mm
same,Scoring of fluorescent staining of the cornea,[1]; [10],3.88 ± 2.36
same,Tear secretion amount: wetted length of phenol red cotton thread,[1]; [10],7.16 ± 2.77 mm
same,Scoring of fluorescent staining of the cornea,[1]; [11],1.75 ± 1.49
same,Tear secretion amount: wetted length of phenol red cotton thread,[1]; [11],11.37 ± 3.26 mm
same,Tear film breakup time,"[1]; rats, eye drops",improved
same,Therapeutic effect on the dry eye model of mice (tear secretion amount and corneal damage),"[2]; eye drops 1 mg/mL, 2.5 mg/mL, 5 mg/mL",good therapeutic effect
same,Scoring of fluorescent staining of the cornea,[2]; [12],0.50 ± 0.97
same,Tear secretion amount: wetted length of phenol red cotton thread,[2]; [12],4.54 ± 1.84 mm
same,Scoring of fluorescent staining of the cornea,[2]; [13],2.56 ± 1.50##**&
same,Tear secretion amount: wetted length of phenol red cotton thread,[2]; [13],2.13 ± 0.69##**& mm
same,Scoring of fluorescent staining of the cornea,[2]; [14],2.31 ± 1.35##**&
same,Tear secretion amount: wetted length of phenol red cotton thread,[2]; [14],2.72 ± 0.91##**&& mm
same,Scoring of fluorescent staining of the cornea,[2]; [15],0.31 ± 0.87
same,Tear secretion amount: wetted length of phenol red cotton thread,[2]; [15],4.30 ± 1.08 mm
same,Scoring of fluorescent staining of the cornea,[2]; [16],2.88 ± 2.53
same,Tear secretion amount: wetted length of phenol red cotton thread,[2]; [16],2.14 ± 0.69##**& mm
same,Scoring of fluorescent staining of the cornea,[2]; [17],2.56 ± 1.55
same,Tear secretion amount: wetted length of phenol red cotton thread,[2]; [17],2.58 ± 0.82##**& mm
same,Scoring of fluorescent staining of the cornea,[2]; [18],0.25 ± 0.58
same,Tear secretion amount: wetted length of phenol red cotton thread,[2]; [18],4.28 ± 1.41 mm
same,Scoring of fluorescent staining of the cornea,[2]; [19],2.38 ± 2.09##**&
same,Tear secretion amount: wetted length of phenol red cotton thread,[2]; [19],2.73 ± 0.48##**&& mm
same,Scoring of fluorescent staining of the cornea,[2]; [20],2.38 ± 1.20##**&
same,Tear secretion amount: wetted length of phenol red cotton thread,[2]; [20],2.85 ± 0.57##**&& mm
same,Concentration of eye drops with the best therapeutic effect,"[2]; mice, combining tear secretion amount and corneal staining score",5 mg/mL
same,Crystal Form,"[3]; 25° C./92.5% RH (open), 5 days",Crystal Form B
same,Crystal Form,"[3]; 25° C./92.5% RH (open), 10 days",Crystal Form B
same,Crystal Form,"[3]; 40° C. (open), 1 month",Crystal Form B
same,Crystal Form,"[3]; 40° C. (open), 10 days",Crystal Form B
same,Crystal Form,"[3]; 40° C./75% RH (open), 1 month",Crystal Form B
same,Crystal Form,"[3]; 40° C./75% RH (open), 2 month",Crystal Form B
same,Crystal Form,"[3]; 40° C./75% RH (open), 3 month",Crystal Form B
same,Crystal Form,"[3]; 60° C./75% RH (open), 1 month",Crystal Form B
same,Crystal Form,"[3]; 60° C./75% RH (open), 2 month",Crystal Form B
same,Crystal Form,"[3]; 60° C./75% RH (open), 3 month",Crystal Form B
same,Stability of the crystal form (conclusion),"[3]; influencing factors 10 days, 40° C. 1 month, 40° C./75% RH and 60° C./75% RH 3 months",stable
same,Crystal Form,"[3]; light (visible light intensity 5000 lux and ultraviolet intensity 90 W/cm^2, open), 10 days",Crystal Form B
same,Crystal Form,"[3]; light control, 10 days",Crystal Form B
same,Relative stability of crystal forms (conclusion),[4],more stable than the crystal form C of the compound of formula (I)
same,Discomfort in animals after administration of the eye drops,[5],do not cause any discomfort
